Results from US6784137B2, “6-aryl-4-aminopicolinates and their use as herbicides” (Dow AgroSciences LLC, priority 2001, dated 2004).

Row | SMILES | melting point
1 | Nc1cc(-c2nccs2)nc(C(=O)O)c1Cl [Compound 222, 4-Amino-3-chloro-6-(2-thiazolyl)pyridine-2-carboxylic acid] | 184 to 185 °C
2 | COC(=O)c1nc(-c2cccc(OC)c2)cc(N)c1Cl [Compound 24, Methyl 4-amino-3-chloro-6-(3-methoxyphenyl)pyridine-2-carboxylate] | 122 to 123 °C
3 | COC(=O)c1nc(-c2ccc(OC(F)(F)F)cc2)cc(N)c1Cl [Compound 56, Methyl 4-amino-3-chloro-6-[4-(trifluoromethoxy)phenyl]pyridine-2-carboxylate] | 119 to 120 °C
4 | Nc1cc(-c2ccc3c(c2Cl)OCO3)nc(C(=O)O)c1Cl [Compound 187, 4-Amino-3-chloro-6-(2-chloro-3,4-methylenedioxyphenyl)pyridine-2-carboxylic acid] | 226 to 227 °C
5 | COC(=O)c1nc(-c2cc(C(F)(F)F)cc(C(F)(F)F)c2)cc(N)c1Cl [Compound 46, Methyl 4-amino-3-chloro-6-(3,5-bis-(trifluoromethyl)phenyl)pyridine-2-carboxylate] | 139 to 140 °C
6 | Nc1cc(-c2ccc(F)cc2F)nc(C(=O)O)c1Cl [Compound 145, 4-Amino-3-chloro-6-(2,4-difluorophenyl)pyridine-2-carboxylic acid] | 206 °C (dec.)
7 | COC(=O)c1nc(-c2ccc3c(c2)CCC3)cc(NC(C)=O)c1Cl [Compound 74, Methyl 4-acetamido-3-chloro-6-(5-indanyl)pyridine-2-carboxylate] | 132 to 134 °C
8 | COC(=O)c1nc(-c2cc3ccccc3o2)cc(N)c1Cl [Compound 96, Methyl 4-amino-3-chloro-6-(2-benzofuranyl)pyridine-2-carboxylate] | 182 to 183 °C
9 | Nc1cc(-c2ccc3c(c2)CCO3)nc(C(=O)O)c1Cl [Compound 201, 4-Amino-3-chloro-6-(2,3-dihydro-5-benzofuranyl)pyridine-2-carboxylic acid] | 218 to 220 °C
10 | COC(=O)c1nc(-c2cncnc2)cc(NC(C)=O)c1Cl [Compound 117, Methyl 4-acetamido-3-chloro-6-(5-pyrimidinyl)pyridine-2-carboxylate] | 178 to 185 °C
11 | COC(=O)c1nc(-c2ccnc(OC)c2)cc(N)c1Cl [Compound 107, Methyl 4-amino-3-chloro-6-(6-methoxy-4-pyridinyl)pyridine-2-carboxylate] | 185 to 187 °C
12 | COc1ccc(-c2cc(N)c(Cl)c(C(=O)O)n2)cc1C [Compound 193, 4-Amino-3-chloro-6-(4-methoxy-3-methylphenyl)pyridine-2-carboxylic acid] | 131 °C
13 | COC(=O)c1nc(-c2cccnc2)cc(N)c1Cl [Compound 102, Methyl 4-amino-3-chloro-6-(3-pyridyl)pyridine-2-carboxylate] | 144 to 146 °C
14 | COC(=O)c1nc(-c2ccco2)cc(N)c1Cl [Compound 110, Methyl 4-amino-3-chloro-6-(2-furanyl)pyridine-2-carboxylate] | 117 °C
15 | CCCCOC(=O)c1nc(-c2ccc(C)cc2)cc(N)c1Cl [Compound 249, Butyl 4-amino-3-chloro-6-(4-methylphenyl)pyridine-2-carboxylate] | 60 to 62 °C
16 | COC(=O)c1nc(-c2nc3ccccc3s2)cc(N)c1Cl [Compound 9, Methyl 4-amino-3-chloro-6-(2-benzthiazolyl)pyridine-2-carboxylate] | 224 °C
17 | CCOC(=O)c1nc(-c2ccc(C)cc2)cc(N)c1Cl [Compound 263, Ethyl 4-amino-3-chloro-6-(4-methylphenyl)pyridine-2-carboxylate] | 129 to 130 °C
18 | COC(=O)c1nc(-c2ccc(Cl)c(F)c2)cc(NC(C)=O)c1Cl [Compound 60, Methyl 4-acetamido-3-chloro-6-(4-chloro-3-fluorophenyl)pyridine-2-carboxylate] | 156 to 157 °C
19 | Cc1ccccc1-c1cc(N)c(Cl)c(C(=O)O)n1 [Compound 165, 4-Amino-3-chloro-6-(2-methylphenyl)pyridine-2-carboxylic acid] | 188 to 189 °C
20 | COC(=O)c1nc(-c2ccc(C)cc2)cc(NC(C)=O)c1Cl [Compound 83, Methyl 4-acetamido-3-chloro-6-(4-methylphenyl)pyridine-2-carboxylate] | 156 °C
21 | Nc1cc(-c2ccccn2)nc(C(=O)O)c1Cl [Compound 214, 4-Amino-3-chloro-6-(2-pyridinyl)pyridine-2-carboxylic acid] | 185 °C (dec.)
22 | COC(=O)c1nc(-c2ccc(OC)c(OC)c2)cc(NC(C)=O)c1Cl [Compound 63, Methyl 4-acetamido-3-chloro-6-(3,4-dimethoxyphenyl)pyridine-2-carboxylate] | 153 to 154 °C
23 | COC(=O)c1nc(-c2ccc(C(C)=O)cc2)cc(N)c1Cl [Compound 31, Methyl 4-amino-3-chloro-6-(4-acetylphenyl)pyridine-2-carboxylate] | 146 to 148 °C
24 | COC(=O)c1nc(-c2nccs2)cc(NC(C)=O)c1Cl [Compound 103, Methyl 4-acetamido-3-chloro-6-(2-thiazolyl)pyridine-2-carboxylate] | 187 to 188 °C

Row | SMILES | melting point
25 | Nc1cc(-c2ccc(CF)cc2)nc(C(=O)O)c1Cl [Compound 160, 4-Amino-3-chloro-6-[4-(fluoromethyl)phenyl]pyridine-2-carboxylic acid] | 156 to 157 °C
26 | Nc1cc(-c2ccccc2F)nc(C(=O)O)c1Cl [Compound 142, 4-Amino-3-chloro-6-(2-fluorophenyl)pyridine-2-carboxylic acid] | 121 to 122 °C
27 | COC(=O)c1nc(-c2ccc(C(C)C)cc2)cc(N)c1Cl [Compound 35, Methyl 4-amino-3-chloro-6-(4-isopropylphenyl)pyridine-2-carboxylate] | 92 to 93 °C
28 | COC(=O)c1nc(-c2ccc(Cl)cc2OC)cc(N)c1Cl [Compound 68, Methyl 4-amino-3-chloro-6-(4-chloro-2-methoxyphenyl)pyridine-2-carboxylate] | 152 to 154 °C
29 | COC(=O)c1nc(-c2cnn(C)c2)cc(NC(C)=O)c1Cl [Compound 87, Methyl 4-acetamido-3-chloro-6-(1-methyl-1H-pyrazol-4-yl)pyridine-2-carboxylate] | 177 to 178 °C
30 | COC(=O)c1nc(-c2ccc(OC)c(C)c2)cc(N)c1Cl [Compound 80, Methyl 4-amino-3-chloro-6-(4-methoxy-3-methylphenyl)pyridine-2-carboxylate] | 158 °C
31 | COC(=O)c1nc(-c2ccc3c(c2Cl)OCO3)cc(NC(C)=O)c1Cl [Compound 72, Methyl 4-acetamido-3-chloro-6-(2-chloro-3,4-methylenedioxyphenyl)pyridine-2-carboxylate] | 195 to 196 °C
32 | COC(=O)c1nc(-c2nnnn2C)cc(N)c1Cl [Compound 10, Methyl 4-amino-3-chloro-6-(1-methyl-1H-tetrazol-5-yl)pyridine-2-carboxylate] | 239 to 241 °C
33 | Cc1ccc(-c2cc(N)c(Cl)c(C(=O)O)n2)s1 [Compound 218, 4-Amino-3-chloro-6-(5-methyl-2-thienyl)pyridine-2-carboxylic acid] | 175 to 176 °C
34 | COc1ccc(OC)c(-c2cc(N)c(Cl)c(C(=O)O)n2)c1 [Compound 194, 4-Amino-3-chloro-6-(2,5-dimethoxyphenyl)pyridine-2-carboxylic acid] | 185 to 186 °C
35 | Nc1cc(-c2ccncc2)nc(C(=O)O)c1Cl [Compound 209, 4-Amino-3-chloro-6-(4-pyridinyl)pyridine-2-carboxylic acid] | 155 °C (dec.)
36 | COC(=O)c1nc(-c2ccc3c(c2)CCC3)cc(N)c1Cl [Compound 75, Methyl 4-amino-3-chloro-6-(5-indanyl)pyridine-2-carboxylate] | 165 to 166 °C
37 | COc1cc(Cl)ccc1-c1cc(N)c(Cl)c(C(=O)O)n1 [Compound 186, 4-Amino-3-chloro-6-(4-chloro-2-methoxyphenyl)pyridine-2-carboxylic acid] | 182 to 183 °C
38 | COC(=O)c1nc(-c2cc(Br)ccc2OC)cc(N)c1Cl [Compound 32, Methyl 4-amino-3-chloro-6-(5-bromo-2-methoxyphenyl)pyridine-2-carboxylate] | 191 to 192 °C
39 | Cc1ccc(-c2cc(N)c(Cl)c(C(=O)O)n2)c(Cl)c1 [Compound 190, 4-Amino-3-chloro-6-(2-chloro-4-methylphenyl)pyridine-2-carboxylic acid] | 71 to 72 °C
40 | COC(=O)c1nc(-c2ccc(Cl)c(Cl)c2)cc(N)c1Cl [Compound 40, Methyl 4-amino-3-chloro-6-(3,4-dichlorophenyl)pyridine-2-carboxylate] | 170 °C
41 | COC(=O)c1nc(-c2ccccn2)cc(N)c1Cl [Compound 109, Methyl 4-amino-3-chloro-6-(2-pyridinyl)pyridine-2-carboxylate] | 142 to 145 °C
42 | COC(=O)c1nc(-c2ccc(O)nc2)cc(N)c1Cl [Compound 108, Methyl 4-amino-3-chloro-6-(6-hydroxy-3-pyridinyl)pyridine-2-carboxylate] | 251 to 252 °C
43 | COC(=O)c1nc(-c2cnn(C)c2)cc(N)c1Cl [Compound 124, Methyl 4-amino-3-chloro-6-(1-methyl-1H-pyrazol-4-yl)pyridine-2-carboxylate] | 174 to 176 °C
44 | Nc1cc(-c2cncnc2)nc(C(=O)O)c1Cl [Compound 228, 4-Amino-3-chloro-6-(5-pyrimidinyl)pyridine-2-carboxylic acid] | 180 °C
45 | Cc1cc(F)c(-c2cc(N)c(Cl)c(C(=O)O)n2)cc1Cl [Compound 192, 4-Amino-3-chloro-6-(5-chloro-2-fluoro-4-methylphenyl)pyridine-2-carboxylic acid] | 173 to 175 °C
46 | Nc1cc(-c2cnco2)nc(C(=O)O)c1Cl [Compound 231, 4-Amino-3-chloro-6-(5-oxazolyl)pyridine-2-carboxylic acid] | 166 to 170 °C
47 | COC(=O)c1nc(-c2ccc(Cl)cc2)c(F)c(N)c1Cl [Compound 14, Methyl 4-amino-3-chloro-5-fluoro-6-(4-chlorophenyl)pyridine-2-carboxylate] | 233 to 236 °C
